{"source": "patent US20220137027A1", "about": "“METHOD FOR EVALUATING MOLECULAR CHANGES RELATED TO A MOLECULE EFFECT IN A BIOLOGICAL SAMPLE” (IMABIOTECH, priority 2019, published 2022)", "assay_type_in_all_cases": "in vivo, BALB/c mice", "key": {"[1]": {"assay": "Epacadostat quantification in CT26 tumor sections by LC-MS/MS", "settings": "BALB/c, mouse, CT26 tumor tissue sections, 100 mg/kg oral gavage"}, "[2]": {"assay": "Epacadostat absolute quantification in CT26 tumor sections by QMSI (MALDI MSI)", "description": "(§1) Colon carcinoma CT26 cell line was subcutaneously grafted into BALB/c mice (Charles River Laboratories, France). […] Tumors were sampled and snap frozen in liquid nitrogen for 15 s. The samples were kept at −80° C. until use. Ten micrometers thick tissue sections were obtained using a cryostat microtome (CM-3050S, Leica, Germany) with a microtome chamber and a specimen holder chilled at −23° C. Tissue sections were thaw mounted onto ITO-coated slides for downstream MALDI imaging and serial sections on SuperFrost slide for histological and immunohistochemistry (IHC) analysis. Biological replicates in duplicate (distant serial sections) were performed for analytical reproducibility. […] All animal experiments were compliant with the 2010/63/UE European Directive on Laboratory Animal Welfare and were approved by an Ethical Committee.\nThen, low limit of detection (LOD), low limit of quantitation (LLOQ) and limit of linearity parameters were defined for the calibration curve that has been performed using at least 10 spotted concentrations on 10 μm thickness control tumor tissue sections. […] On the same ITO slide, calibration curve and tissue sections of interest (1 control and 3 treated in duplicates) were deposited and analyzed. Then, a uniform layer of filtrated 1,5-diaminonaphtalene (1,5-DAN) prepared at 10 mg/mL with 50/50 ACN/H2O matrix was deposited onto the tumor tissue sections using an HTX-TM sprayer device (HTX Technologies, LLC, Carrboro, N.C.). MALDI MSI analyses were performed using 7T MALDI-FTICR (SolariX XR, Bruker Daltonics, Bremen, Germany) with a SmartBeam II laser. […] Data acquisition was performed using the Flex software (FtmsControl 2.1.0) from Bruker Daltonics. Then, Multimaging software (ImaBiotech SAS) was used to obtain the calculated equation and to extract the different quantities in pmol/mm^2. A quantity conversion to μg/g of tissue was then obtained in created regions of interest (ROIs).\n1.2 software (ImaBiotech SAS). This multimodal imaging platform combines quantitative mass spectrometry imaging (QMSI) and microscopy platform with statistical analysis for the understanding of the Omics information at cellular levels. MSI data were acquired from each tissue section as well as matrix control areas adjacent to the tissue sections to check for analyte dispersion/delocalization during sample preparation. Therefore, the ROIs related to EPA and/or Kyn presence were given by an image segmentation algorithm. […] Then, the algorithm smoothed the two ROIs to transform them into connected spaces. Finally, an exposure score was calculated using the Multimaging software using the formula: […]"}, "[3]": {"assay": "Epacadostat quantification in plasma and blood", "settings": "BALB/c, mouse, 100 mg/kg oral"}, "IDO1": {"molecular_target": "T1, IDO1 (Mus musculus, UniProt P28776)", "T1 construct": "Colon carcinoma CT26 cell line was subcutaneously grafted into BALB/c mice; from tissue", "T1 sequence (P28776 whole entry)": "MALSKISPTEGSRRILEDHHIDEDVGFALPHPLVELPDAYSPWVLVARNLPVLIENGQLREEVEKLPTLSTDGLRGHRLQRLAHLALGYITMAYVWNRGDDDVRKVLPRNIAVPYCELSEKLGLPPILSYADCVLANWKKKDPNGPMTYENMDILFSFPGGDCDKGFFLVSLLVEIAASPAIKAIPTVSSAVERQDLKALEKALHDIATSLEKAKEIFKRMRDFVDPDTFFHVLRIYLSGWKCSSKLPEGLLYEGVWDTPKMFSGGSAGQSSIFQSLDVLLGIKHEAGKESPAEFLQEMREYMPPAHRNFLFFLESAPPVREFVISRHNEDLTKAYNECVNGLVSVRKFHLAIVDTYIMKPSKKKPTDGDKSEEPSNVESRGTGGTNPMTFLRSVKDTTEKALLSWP", "assay": "Regional exposure to response analysis in segmented ROIs of treated CT26 tumor (Kyn, Lactate, IDO1 immunostaining)", "description": "as §1\nAs Kyn was not detectable and Trp was slightly seen using classical method in CT26 tumor models, a derivatization strategy was necessary. The derivatization reaction amounts to adding the C11H16N+ (as X) unit to the neutral analyte. The agent was applied using an automatic sprayer (Suncollect, Sunchrom) and left during 30 min for incubation at room temperature. […] MSI data for kynurenine and tryptophan was recorded in positive ion mode (CASI, m/z range 350.0+/−150) at 120 μm of spatial resolution using an online calibration. […]\nFor MALDI MSI of other metabolites, a uniform layer of filtrated 1,5-diaminonaphtalene (1,5-DAN) prepared at 10 mg/mL with 50/50 ACN/H2O matrix was deposited onto the tumor tissue sections using an HTX-TM sprayer device (HTX Technologies, LLC, Carrboro, N.C.). […] MSI data for metabolites were recorded in full scan negative ion mode (m/z range 100-1000) at 120 μm of spatial resolution using an online calibration. […]\n1.2 software (ImaBiotech SAS). This multimodal imaging platform combines quantitative mass spectrometry imaging (QMSI) and microscopy platform with statistical analysis for the understanding of the Omics information at cellular levels. […] Finally, an exposure score was calculated using the Multimaging software using the formula: […]"}}, "data": [{"smiles": "NS(=O)(=O)NCCNc1nonc1C(=NO)Nc1ccc(F)c(Br)c1", "note": "[EPA, Epacadostat]", "values": [{"measurement": "concentration at 2 h", "setting": "[1]", "value": 38500, "unit": "ng/g"}, {"measurement": "Kp at 2 h", "setting": "[2]; BALB/c, mouse, CT26 tumor relative to plasma, oral, 100 mg/kg, treated CT26 tumors, LC-MS/MS and QMSI", "value": "3 to 4"}, {"measurement": "concentration at 2 h", "setting": "[2]; BALB/c, mouse, CT26 tumor section, ROI 1 (high EPA region), oral, 100 mg/kg, EPA quantity in ROI 1 (high EPA), QMSI, ROI 1 = 38% of tumor surface", "value": 68000, "unit": "ng/g"}, {"measurement": "concentration at 2 h", "setting": "[2]; BALB/c, mouse, CT26 tumor section, ROI 1, oral, 100 mg/kg, EPA quantity corresponding to the share in ROI 1, 61% of EPA signal", "value": 26000, "unit": "ng/g"}, {"measurement": "concentration at 2 h", "setting": "[2]; BALB/c, mouse, CT26 tumor section, ROI 2 (low EPA region), oral, 100 mg/kg, EPA quantity in ROI 2 (low EPA), QMSI, ROI 2 = 62% of tumor surface", "value": 25000, "unit": "ng/g"}, {"measurement": "concentration at 2 h", "setting": "[2]; BALB/c, mouse, CT26 tumor section, ROI 2, oral, 100 mg/kg, EPA quantity corresponding to the share in ROI 2, 39% of EPA signal", "value": 15000, "unit": "ng/g"}, {"measurement": "concentration at 2 h", "setting": "[2]; BALB/c, mouse, CT26 tumor section, ROI 3 (entire section), oral, 100 mg/kg, EPA quantity in ROI 3 (entire treated tumor section), QMSI", "value": 42000, "unit": "ng/g"}, {"measurement": "concentration at 2 h", "setting": "[2]; BALB/c, mouse, CT26 tumor tissue sections, po, 100 mg/kg, EPA quantity in treated CT26 tumor sections, three biological triplicates, QMSI, 100 mg/kg oral gavage, sacrificed 2 hours later", "value": "38000 to 53000", "unit": "ng/g"}, {"measurement": "concentration at 2 h", "setting": "[2]; BALB/c, mouse, CT26 tumor tissue sections, po, 100 mg/kg, average EPA quantity in CT26 tumor, QMSI, 100 mg/kg oral gavage, 2 hours", "value": 46000, "unit": "ng/g"}, {"measurement": "concentration at 2 h", "setting": "[2]; BALB/c, mouse, CT26 tumor tissue, oral, 100 mg/kg, available on tissue quantity of EPA in treated CT26 tumors, LC-MS/MS and QMSI", "value": "35000 to 48000", "unit": "ng/g"}, {"measurement": "share of EPA signal concentrated in ROI 1", "setting": "[2]; ROI 1 = 38% of entire tissue section", "value": "~61", "unit": "%"}, {"measurement": "share of EPA signal in ROI 2", "setting": "[2]; ROI 2 = 62% left tumor region", "value": 39, "unit": "%"}, {"measurement": "concentration at 2 h", "setting": "[3]; plasma", "value": 6600, "unit": "ng/g"}, {"measurement": "concentration at 2 h", "setting": "[3]; whole blood", "value": 7300, "unit": "ng/g"}, {"measurement": "correlation between IDO1 expression level (semi-quantitative histology) and EPA levels", "setting": "IDO1; IDO1 immunostaining on serial section", "value": "positive correlation"}, {"measurement": "share of Kyn present in ROI 1 (high EPA)", "setting": "IDO1; ROI 1 = 38% of the entire tumor", "value": 15, "unit": "%"}, {"measurement": "share of Kyn present in ROI 2 (low EPA)", "setting": "IDO1; ROI 2", "value": 85, "unit": "%"}]}]}
